The values that follow come from patent US4992450A, “Piperidine opioid antagonists” (Eli Lilly and Company, priority 1989, dated 1991).

Where a name gives a salt, the structure may show the parent alone. Read-outs that look alike come from different tables or passages of the source.

The target in assay [1] is T1, kappa receptor (Mus musculus, UniProt P33534).
T1 construct: Five CF-1 male mice (Charles River, Portage, Mich.); from tissue; host or cells: whole living CF-1 male mice (in vivo)
Briefly: in vivo. More on the design: species or system CF-1 male mice. Conditions: sc, read-out: Kappa AD50.

In assay [2] the test system is meal fed obese Zucker rats. Briefly: Food consumption assay in meal fed obese Zucker rats. Type of assay: in vivo. Conditions: Rattus norvegicus, sc, 4 h, amount to decrease food consumption 20% during first four hours. From the text:
The following assay was employed to evaluate the ability of the compounds of the invention to effect food and water consumption of meal fed obese Zucker rats.
According to this procedure, 3-4 month old obese Zucker rats were trained to eat food daily from 8:00 A.M. to 4:00 P.M. only, such that the body weight gain approximates that if the rats were fed ad libitum. These rats were allowed to consume water at all times. Four groups of rats with four rats in each group, two female and two male, were formed. One group served as control for the other three groups each day. Each of the other groups were given a subcutaneous dose of the compound to be evaluated. The test compound was formulated in physiological saline containing 10% dimethylsulfoxide by volume.
Animals remained drug free for 4 days before the next test. Food and water consumption of each rat were measured for the first four hours. A test on one compound was run for three consecutive days. The drug effect was expressed as the percent of the control for that test day.
In the Table, column 1 gives the Example Number of the compound evaluated; and column 2 provides the ED20 in mg/kg, wherein ED20 represents the amount of compound evaluated in mg/kg necessary to decrease food consumption 20% during the first four hours of the experiment.

In assay [3] the target is T2, mu receptor (Rattus norvegicus, UniProt P33535).
T2 construct: rat whole brain minus cerebellum for mu and delta sites; from tissue; host or cells: rat whole brain minus cerebellum, frozen pellet fraction
T2 sequence (P33535 whole entry): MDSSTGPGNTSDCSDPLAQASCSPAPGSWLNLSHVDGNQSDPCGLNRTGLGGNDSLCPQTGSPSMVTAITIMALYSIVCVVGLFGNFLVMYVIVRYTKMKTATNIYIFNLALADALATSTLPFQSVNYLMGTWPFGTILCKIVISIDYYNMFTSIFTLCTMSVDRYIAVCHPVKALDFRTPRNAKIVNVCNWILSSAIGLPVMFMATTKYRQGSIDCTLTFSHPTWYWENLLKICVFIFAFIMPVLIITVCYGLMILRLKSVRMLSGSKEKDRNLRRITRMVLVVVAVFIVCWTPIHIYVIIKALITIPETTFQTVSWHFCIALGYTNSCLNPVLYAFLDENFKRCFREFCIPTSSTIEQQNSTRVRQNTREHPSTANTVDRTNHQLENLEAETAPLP
Briefly: Opioid receptor binding displacement assay, mu site (rat whole brain minus cerebellum, 3H ligand). More on the design: species or system Male Sprague Dawley rats. As for the experimental part: (§1) This assay was conducted by the following procedure.
(§2) Male Sprague Dawley rats for mu and delta site experiments and male Hartley guinea pigs for kappa site experiments were sacrificed via decapitation and the brains were removed. The brain tissue, rat whole brain minus cerebellum for mu and delta sites and guinea pig cortex for the kappa site, was homogenized in a Teflon and glass tissue homogenizer. A supernatant I, pellet IV, fraction was frozen in a nitrogen freezer at 1.33 g/ml concentration and stored for not longer than five weeks prior to use. Pellets were rehydrated with physiological buffer prior to use.
(§3) The reaction was initiated by the addition of the rehydrated tissue which has been preincubated at 37° C. for 20 minutes. The reaction mixture was incubated in a 37° C. water bath for 20 minutes. The reaction was terminated by rapid filtration, (Amicon vacuum manifolds), through Whatman GF/C glass filters that had been presoaked in Krebs-Hepes buffer pH 7.4. The filters were then washed 2× with 5 ml of ice cold Krebs-Hepes buffer pH 7.4. Washed filters were placed in scintillation vials and 10 ml PCS, (Amersham), was added and samples counted in a Searle D-300 beta counter. Means and standard error statistics were calculated for triplicate experimental determinations in certain cases. The procedure was slightly modified for the kappa site. The tissue was pretreated with 100 nM concentrations of mu and delta receptor site blockers. The incubation time for the reaction mixture was 45 minutes at 37° C.

Assay [4] concerns the target T3, mu receptor (Mus musculus, UniProt P42866).
T3 construct: Five CF-1 male mice (Charles River, Portage, Mich.); from tissue; host or cells: whole living CF-1 male mice (in vivo)
As to the kind of experiment: Mouse writhing assay, antagonism of morphine analgesia (mu). In kind it is in vivo, CF-1 male mice. Conditions: sc, read-out: Mu AD50.

Assay [5] has as its target T4, kappa receptor (Cavia porcellus, UniProt P41144).
T4 construct: guinea pig cortex for the kappa site; from tissue; host or cells: guinea pig cortex, frozen pellet fraction
As to the kind of experiment: Opioid receptor binding displacement assay, kappa site (guinea pig cortex, 3H ligand). Also noted: species or system male Hartley guinea pigs. How it is done:
as §1, §2, §3

The target in assay [6] is T5, kappa receptors (Rattus norvegicus, UniProt P34975).
T5 construct: sixty male Long-Evans hooded rats; from tissue; host or cells: whole living male Long-Evans hooded rats (in vivo)
T5 sequence (P34975 whole entry): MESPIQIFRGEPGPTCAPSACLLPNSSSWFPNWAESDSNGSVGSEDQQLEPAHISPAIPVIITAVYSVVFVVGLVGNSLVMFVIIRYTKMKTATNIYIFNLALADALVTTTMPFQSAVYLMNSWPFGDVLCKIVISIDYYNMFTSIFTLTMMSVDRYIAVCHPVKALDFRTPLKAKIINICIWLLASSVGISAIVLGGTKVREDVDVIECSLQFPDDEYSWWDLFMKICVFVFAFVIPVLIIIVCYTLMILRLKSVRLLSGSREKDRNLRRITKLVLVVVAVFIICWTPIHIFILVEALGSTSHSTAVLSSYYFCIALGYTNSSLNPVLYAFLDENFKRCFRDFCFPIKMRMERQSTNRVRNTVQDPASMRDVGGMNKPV
As to the kind of experiment: Rat diuresis assay, antagonism of bremazocine-induced urination. In kind it is in vivo, male Long-Evans hooded rats. Conditions: sc, rats, s.c., urinary output reduced to 50% of effect of 0.08 mg/kg bremazocine alone. As for the experimental part:
As such, the compounds of the invention were also evaluated in a rat diuresis assay conducted according to the following procedure described by Leander et al. in Drug Development Research 4:421-427 (1984) in an effort to further establish the ability of the present compounds to block kappa receptors.
According to this procedure, sixty male Long-Evans hooded rats (Charles River Breeding Laboratories, Portage, Mich.) weighing between about 300 and 500 grams each were housed either individually or in pairs in a temperature-controlled (23° C.) colony room which was illuminated between 6:00 A.M. and 6:00 P.M. Rodent chow and tap water were continuously available except during the measurement of urine output. The animals were used repeatedly, but no more frequently than twice a week.
The animals were then injected with various doses of the test compounds. To measure urine output, the animals were removed from the home cages, weighed, injected and placed in metabolism cages for 5 hr. Excreted urine was funneled into graduated cylinders. Cumulative urine volumes were determined at designated time intervals, usually at 2 and 5 hr after injection.
The compounds which are salt forms were dissolved in distilled water. If necessary, the compounds were dissolved in distilled water with the aid of either a few drops of lactic acid or hydrochloric acid and gentle warming. All injections were s.c. in a volume of 1 ml/kg of body weight. During tests for antagonism, two injections were given, one on each side of the body.
In the Table, column 1 provides the Example Number of the compound tested; column 2, the amount of compound in mg/kg necessary to reduce the urinary output to 50% of the effect produced by 0.08 mg/kg of bremazocine alone two hours after injection of bremazocine and the test compound; and column 3, the amount of compound in mg/kg necessary to reduce the urinary output to 50% of the effect produced by 0.08 mg/kg of bremazocine alone five hours after injection of bremazocine and the test compound.

Setting [7] is: rat brain minus cerebellum, pH 7.4, 37° C., 20 minutes, read-out: Ki Mu.
Where [8] appears, read: guinea pig cortex, pH 7.4, 37° C., 45 minutes, mu and delta sites blocked (100 nM), read-out: Ki Kappa.
Where [9] appears, read: 2 h, two hours after injection, read-out: AD50 Two Hours.
[10] abbreviates: 5 h, five hours after injection, read-out: AD50 Five Hours.

T4 sequence (P41144 whole entry): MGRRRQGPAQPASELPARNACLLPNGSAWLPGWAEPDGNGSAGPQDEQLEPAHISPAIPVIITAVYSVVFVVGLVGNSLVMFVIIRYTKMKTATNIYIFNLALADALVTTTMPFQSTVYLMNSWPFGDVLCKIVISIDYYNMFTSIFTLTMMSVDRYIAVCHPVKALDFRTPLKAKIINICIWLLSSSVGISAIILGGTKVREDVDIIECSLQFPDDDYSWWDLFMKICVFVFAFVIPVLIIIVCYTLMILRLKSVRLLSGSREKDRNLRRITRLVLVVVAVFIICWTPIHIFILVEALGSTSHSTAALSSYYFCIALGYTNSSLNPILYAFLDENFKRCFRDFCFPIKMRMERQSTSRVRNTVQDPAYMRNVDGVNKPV
T1 sequence (P33534 whole entry): as the sequence (P34975 whole entry) above, with E11D, A17S, P51S, V308A counted along it
T3 sequence (P42866 whole entry): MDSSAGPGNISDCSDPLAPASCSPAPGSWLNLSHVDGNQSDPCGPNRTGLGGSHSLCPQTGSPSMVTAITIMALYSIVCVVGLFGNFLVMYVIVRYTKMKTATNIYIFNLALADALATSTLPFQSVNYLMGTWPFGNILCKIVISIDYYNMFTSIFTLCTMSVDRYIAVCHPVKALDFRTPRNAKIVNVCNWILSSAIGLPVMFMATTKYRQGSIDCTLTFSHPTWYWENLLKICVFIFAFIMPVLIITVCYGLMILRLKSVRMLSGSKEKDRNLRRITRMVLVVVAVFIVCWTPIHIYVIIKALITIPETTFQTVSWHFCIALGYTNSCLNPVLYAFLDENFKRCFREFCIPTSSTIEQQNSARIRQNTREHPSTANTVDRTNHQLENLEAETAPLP

On to `C[C@H]1CN(C)CC[C@@]1(C)c1cccc(O)c1` (relative stereo) [Compound B, 3-(1,3α,4β-Trimethyl-4α-piperidyl)phenol hydrochloride, reference compound], for which the ED50 is 2.5 mg/kg in assay [1] and 0.74 mg/kg in assay [4]. Also, in assay [2], the ED20 turned out to be 3.99 mg/kg. Besides, the Ki (as a rule, a measure of affinity in units of concentration, obtained from inhibition or displacement) in assay [3] (setting [7]) was 80 nM.

As to `C[C@H]1CN(CCC(O)C2CCCCC2)CC[C@@]1(C)c1cccc(O)c1` (relative stereo) [Example 27, trans-(±)-1-[R,S-(3-Hydroxy-3-cyclohexylpropyl)]-3,4-dimethyl-4-(3-hydroxyphenyl)piperidine hydrochloride], the ED50 in assay [1] stood at 0.14 mg/kg; in assay [4] it was 0.07 mg/kg. Moreover, the ED20 in assay [2] came out at 0.04 mg/kg. Besides, the Ki in assay [3] (setting [7]) was determined as 0.22 ± 0.03 nM; in assay [5] (setting [8]) it was 5.04 ± 0.58 nM.

`C=CCCCCN1CCC(C)(c2cccc(O)c2)C(C)C1` (stereo not drawn) [Example 21, trans-(±)-1-(5-n-Hexenyl)-3,4-dimethyl-4-(3-hydroxyphenyl)piperidine hydrochloride] registered an ED20 in assay [2] of 9.37 mg/kg. This compound came in with a Ki in assay [3] of 1.61 nM.

As to `C=C(C)CCCN1CCC(C)(c2cccc(O)c2)C(C)C1` (stereo not drawn) [Example 3, trans-(±)-1-(4-Methyl-4-pentenyl)-3,4-dimethyl-4-(3-hydroxyphenyl)piperidine hydrochloride], the ED50 stood at 0.29 mg/kg in assay [1], 0.27 mg/kg in assay [6] (setting [9]), 0.39 mg/kg in assay [6] (setting [10]) and 0.08 mg/kg in assay [4]. Further, in assay [2], the ED20 was 0.29 mg/kg. In addition, the Ki is 2.95 ± 1.12 nM in assay [3] and 13.9 ± 6.66 nM in assay [5].

`C[C@H]1CN(CCC(O)c2cccs2)CC[C@@]1(C)c1cccc(O)c1` (relative stereo) [Example 40, trans-(±)-1-[R,S-[3-Hydroxy-3-(2-thienyl)-propyl]-3,4-dimethyl-4-(3-hydroxyphenyl)piperidine hydrochloride]: the ED50 in assay [1] turned out to be 0.14 mg/kg; in assay [6] (setting [9]), 3.78 mg/kg; in assay [6] (setting [10]) it was 1.44 mg/kg; in assay [4], 0.065 mg/kg. Also, the ED20 in assay [2] is 0.11 mg/kg. In addition, in assay [3] (setting [7]), the Ki turned out to be 0.5 nM.

With `C[C@H]1CN(CC[C@H](O)C2CCCCC2)CC[C@@]1(C)c1cccc(O)c1` [Example 23, trans-(+)-1-[S-(3-Hydroxy-3-cyclohexylpropyl)]-3,4-dimethyl-4-(3-hydroxyphenyl)piperidine], the ED50 is 0.07 mg/kg in assay [1], 0.4 mg/kg in assay [6] (setting [9]), 0.38 mg/kg in assay [6] (setting [10]) and 0.01 mg/kg in assay [4]. This compound also showed an ED20 in assay [2] of 0.05 mg/kg. Moreover, the Ki in assay [3] (setting [7]) was 0.41 ± 0.09 nM; in assay [5] (setting [8]), 2.02 ± 0.46 nM.

With `CC1CN(CC2CCCCC2)CCC1(C)c1cccc(O)c1` (stereo not drawn) [Example 10, trans-(±)-1-(Cyclohexylmethyl)-3,4-dimethyl-4-(3-hydroxyphenyl)piperidine hydrochloride], the ED50 in assay [1] is 0.34 mg/kg; in assay [6] (setting [9]), 14.9 mg/kg; in assay [6] (setting [10]) it was 3.9 mg/kg; in assay [4], 0.46 mg/kg. In addition, the ED20 in assay [2] worked out at 1.25 mg/kg. The Ki in assay [5] came out at 28.2 nM.

Turning to `C[C@H]1CN(CCC2C=CCC2)CC[C@@]1(C)c1cccc(O)c1` (relative stereo) [Example 7, trans-(±)-1-[2-(2-Cyclopenten-1-yl)ethyl]-3,4-dimethyl-4-(3-hydroxyphenyl)piperidine hydrochloride], the ED50 in assay [1] came out at 0.12 mg/kg; in assay [6] (setting [9]) it was 1.3 mg/kg; in assay [6] (setting [10]) it was 1.38 mg/kg; in assay [4], 0.11 mg/kg. The ED20 in assay [2] is 0.34 mg/kg. Further, the inhibition constant Ki in assay [5] is 1.04 nM.

Regarding `C[C@@H]1CN(CC[C@H](O)C2CCCCC2)CC[C@]1(C)c1cccc(O)c1` [Example 24, trans-(-)-1-[S-(3-Hydroxy-3-cyclohexylpropyl)]-3,4-dimethyl-4-(3-hydroxyphenyl)piperidine], the ED50 was determined as 0.24 mg/kg in assay [1] and 0.05 mg/kg in assay [4]. Further, the ED20 in assay [2] is 0.12 mg/kg. For the same compound, the Ki in assay [3] (setting [7]) came out at 1.4 ± 0.61 nM; in assay [5] (setting [8]), 11.4 ± 4.29 nM.

For the compound `CC1CN(CCC2CCCC2)CCC1(C)c1cccc(O)c1` (stereo not drawn) [Example 6, trans-(±)-1-(2-Cyclopentylethyl)-3,4-dimethyl-4-(3-hydroxyphenyl)piperidine hydrochloride], the values for the ED50 in assay [1], in assay [6] (setting [10]) and in assay [4] were 0.22 mg/kg, 0.67 mg/kg and 0.13 mg/kg, respectively. For the same compound, the ED20 in assay [2] came out at 0.33 mg/kg. Besides, in assay [3], the affinity corresponds to a Ki of 0.94 nM.

On to `C[C@H]1CN(CCC(=O)C2CCCC2)CC[C@@]1(C)c1cccc(O)c1` (relative stereo) [Example 17, trans-(±)-1-(1-Cyclopentylpropanon-3-yl)-3,4-dimethyl-4-(3-hydroxyphenyl)piperidine hydrochloride], for which the ED50 in assay [1] amounted to 0.19 mg/kg; in assay [4], 0.21 mg/kg. In assay [2], this compound came in with an ED20 of 0.31 mg/kg. The figures for the Ki in assay [3] and in assay [5] were 0.84 nM and 0.55 nM, respectively.

As for `C[C@@H]1CN(CC[C@@H](O)C2CCCCC2)CC[C@]1(C)c1cccc(O)c1` [Example 26, trans-(-)-1-[R-(3-Hydroxy-3-cyclohexylpropyl)]-3,4-dimethyl-4-(3-hydroxyphenyl)piperidine], the ED50 in assay [1] turned out to be 0.52 mg/kg; in assay [4] it was 0.07 mg/kg. Moreover, the ED20 in assay [2] stood at 0.35 mg/kg. In assay [3], this compound had an inhibition constant Ki of 2.24 ± 0.17 nM.

Regarding `C[C@H]1CN(CCc2ccccc2)CC[C@@]1(C)c1cccc(O)c1` (relative stereo) [Compound D, 3-(3α,4β-Dimethyl-1-phenethyl-4α-piperidyl)phenol hydrochloride, reference compound], the ED50 came to 1.38 mg/kg in assay [1] and 0.16 mg/kg in assay [4]. The ED20 in assay [2] amounted to 0.94 mg/kg. For the same compound, the Ki in assay [3] (setting [7]) turned out to be 1.2 nM; in assay [5] (setting [8]), 51 nM.

For the compound `COC(CCN1CC[C@@](C)(c2cccc(O)c2)[C@@H](C)C1)C1CCCCC1` (relative stereo) [Example 31, trans-(±)-1-[R,S-(3-Methoxy-3-cyclohexylpropyl)]-3,4-dimethyl-4-(3-hydroxyphenyl)piperidine hydrochloride], the ED50 in assay [1] is 0.44 mg/kg; in assay [4] it was 1.42 mg/kg. For the same compound, the Ki was 0.77 nM in assay [3] (setting [7]) and 3.82 nM in assay [5] (setting [8]).
